Results on 12 compounds are retold here after patent US20260022143A1, “Cyclic Peptide Inhibitors of IL-23” (JANSSEN PHARMACEUTICA NV, priority 2022, published 2026).

Structures can show the parent of a compound that is named as a salt. Starred links: 1 amine or outer side, 2 acyl side, 3 side chain; linkers in the order of their positions; H or OH if unused. Positions of bridges follow the written chain, without caps; N, C: chain ends. Non-standard residues stand in square brackets, D forms with d. Residues, ends and D or L forms follow the SMILES beside them. *: point of attachment. X36 = C[N+]1(CCCc2cn(-c3ccc(C[C@H](N[*:1])C(=O)[*:2])cc3)nn2)CCOCC1; Me3N+(CH2)2O(CH2)2O(CH2)2CO = C[N+](C)(C)CCOCCOCCC(=O)*; Trp(7-CF3) = N[C@@H](Cc1c[nH]c2c(C(F)(F)F)cccc12)C(=O)O; NH(CH2CH2O)2CH2CH2NMe3+ = C[N+](C)(C)CCOCCOCCN*; Trp(7-Me) = Cc1cccc2c(C[C@H](N)C(=O)O)c[nH]c12; Dab(NMeAc) = CC(=O)N(C)CC[C@H](N)C(=O)O; Ac6c(4,4-F2) = NC1(C(=O)O)CCC(F)(F)CC1; 2Nal = N[C@@H](Cc1ccc2ccccc2c1)C(=O)O; AEF = NCCOc1ccc(C[C@H](N)C(=O)O)cc1; X82 = C[N+](C)(C)CCOCCOCCOCCOCCN*; 3Pal = N[C@@H](Cc1cccnc1)C(=O)O; Lys(Me) = CNCCCC[C@H](N)C(=O)O; Pen = CC(C)(S)[C@H](N)C(=O)O; Thp = NC1(C(=O)O)CCOCC1; X3 = C[N+](C)(C)CCCCC*; Me2NCH2CH2 = CN(C)CC*; Tfa = O=C(C(F)(F)F)*; Sar = CNCC(=O)O

The first series can be described thus: Exposed Polar Surface Area (EPSA). The following applies: SFC on Chirex 3014 column; sample 1 mM DMSO stock. Format: physicochemical. The gist of the method:
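Compounds, as 1 mM DMSO stock, were injected in duplicate onto an SFC Chirex 3014 column at 35 °C and eluted with a CO2/methanol (20 mM ammonium formate) gradient. EPSA values in Å^2 were derived from retention times using a linear fit to eight calibration standards, reinjected every 20 compounds.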
The compound `CC(=O)N(C)CCCC[C@@H]1NC(=O)[C@H](Cc2c[nH]c3c(C)cccc23)NC(=O)[C@H]([C@@H](C)O)NC(=O)[C@H](CC(=O)N(C)C)NC(=O)[C@@H](NC(=O)CCOCCOCC[N+](C)(C)C)C(C)(C)SSC(C)(C)[C@@H](C(=O)N[C@@H](Cc2ccc(OCC3CCC([N+](C)(C)C)CC3)cc2)C(=O)N[C@@H](Cc2ccc3ccccc3c2)C(=O)NC2(C(=O)N[C@@H](CCCCN(C)C(C)=O)C(=O)N[C@@H](CC(N)=O)C(=O)N[C@@H](Cc3cccnc3)C(=O)N(C)CC(=O)N(C)C)CCOCC2)NC1=O` (single isomer, unassigned) [compound 222, cPEG3aCO-Pen(3)-N(N(Me)2)-T-7MeW-K(NMeAc)-Pen(3)-ACHMF-2Nal-THP-K(NMeAc)-N-3Pya-Sar-CON(Me)2] showed an EPSA of 142.87 Å^2.

Still in this series, the particulars now being: SFC on Chirex 3014 column; sample 1 mM DMSO stock; read-out: EPSA.
Take `CC(=O)NCCCC[C@@H]1NC(=O)[C@H](Cc2c[nH]c3c(C)cccc23)NC(=O)[C@H]([C@@H](C)O)NC(=O)[C@H](CC(N)=O)NC(=O)[C@@H](NC(=O)C(F)(F)F)C(C)(C)SSC(C)(C)[C@@H](C(=O)N[C@@H](Cc2ccc(OCCN)cc2)C(=O)N[C@@H](Cc2ccc3ccccc3c2)C(=O)NC2(C(=O)N[C@@H](CCCCNC(C)=O)C(=O)N[C@@H](CC(N)=O)C(=O)N[C@@H](Cc3cccnc3)C(=O)N(C)CC(N)=O)CCC(F)(F)CC2)NC1=O` [compound 50] (Tfa-[Pen]NT[Trp(7-Me)]K(Ac)[Pen][AEF][2Nal][Ac6c(4,4-F2)]K(Ac)N[3Pal][Sar]-NH2; disulfide 1-6 (inferred)): the EPSA was 162 A^2.

As for `CC(=O)N[C@@H]1C(=O)N[C@@H](CC(=O)N(C)C)C(=O)N[C@@H]([C@@H](C)O)C(=O)N[C@@H](Cc2c[nH]c3c(C)cccc23)C(=O)N[C@@H](CCC(=O)N(C)C)C(=O)N[C@H](C(=O)N[C@@H](Cc2ccc(OCCN(C)C)cc2)C(=O)N[C@@H](Cc2ccc3ccccc3c2)C(=O)NC2(C(=O)N[C@@H](CCC(=O)O)C(=O)N[C@@H](CC(N)=O)C(=O)N[C@@H](Cc3cccnc3)C(=O)N(C)CC(=O)N(C)C)CCOCC2)C(C)(C)SSC1(C)C` [compound 120, MeCO-Pen(3)-N(N(Me)2)-T-7MeW-Q(N(Me)2)-Pen(3)-AEF(N(Me)2)-2Nal-THP-E-N-3Pya-Sar-CON(Me)2] (Ac-[Pen]D(NMe2)T[Trp(7-Me)]E(NMe2)[Pen]Y(Me2NCH2CH2)[2Nal][Thp]EN[3Pal][Sar]-NMe2; disulfide 1-6), the EPSA was 153 A^2.

Take `CC(=O)N(C)CCCC[C@@H]1NC(=O)[C@H](Cc2c[nH]c3c(C(F)(F)F)cccc23)NC(=O)[C@H]([C@@H](C)O)NC(=O)[C@H](CC(=O)N(C)C)NC(=O)[C@@H](NC(=O)C(F)(F)F)C(C)(C)SSC(C)(C)[C@@H](C(=O)N[C@@H](Cc2ccc(OCCN(C)C)cc2)C(=O)N[C@@H](Cc2ccc3ccccc3c2)C(=O)NC2(C(=O)N[C@@H](CCCCN(C)C(C)=O)C(=O)N[C@@H](CC(N)=O)C(=O)N[C@@H](Cc3cccnc3)C(=O)N(C)CC(=O)N(C)C)CCOCC2)NC1=O` [compound 95, CF3CO-Pen(3)-N(N(Me)2)-T-7CF3W-K(NMeAc)-Pen(3)-AEF(N(Me)2)-2Nal-THP-K(NMeAc)-N-3Pya-Sar-CON(Me)2] (Tfa-[Pen]D(NMe2)T[Trp(7-CF3)][Lys(Me)](Ac)[Pen]Y(Me2NCH2CH2)[2Nal][Thp][Lys(Me)](Ac)N[3Pal][Sar]-NMe2; disulfide 1-6 (inferred)): the EPSA was 131 A^2.

On to `CC(=O)NCCCC[C@@H]1NC(=O)[C@H](Cc2c[nH]c3c(C)cccc23)NC(=O)[C@H]([C@@H](C)O)NC(=O)[C@H](CC(N)=O)NC(=O)[C@@H](NC(C)=O)C(C)(C)SSC(C)(C)[C@@H](C(=O)N[C@@H](Cc2ccc(OCCN)cc2)C(=O)N[C@@H](Cc2ccc3ccccc3c2)C(=O)NC2(C(=O)N[C@@H](CCC(=O)O)C(=O)N[C@@H](CC(N)=O)C(=O)N[C@@H](Cc3cccnc3)C(=O)N(C)CC(=O)NCCOCCOCC[N+](C)(C)C)CCOCC2)NC1=O` [compound 134] (Ac-[Pen]NT[Trp(7-Me)]K(Ac)[Pen][AEF][2Nal][Thp]EN[3Pal][Sar]-{NH(CH2CH2O)2CH2CH2NMe3+}; disulfide 1-6), for which the EPSA was found to be 159 A^2.

On to `CC(=O)NCCCC[C@@H]1NC(=O)[C@H](Cc2c[nH]c3c(C)cccc23)NC(=O)[C@H]([C@@H](C)O)NC(=O)[C@H](CC(N)=O)NC(=O)[C@@H](NC(=O)CCOCCOCC[N+](C)(C)C)C(C)(C)SSC(C)(C)[C@@H](C(=O)N[C@@H](Cc2ccc(OCCCCC[N+](C)(C)C)cc2)C(=O)N[C@@H](Cc2ccc3ccccc3c2)C(=O)NC2(C(=O)N[C@@H](CCC(=O)O)C(=O)N[C@@H](CC(N)=O)C(=O)N[C@@H](Cc3cccnc3)C(=O)N(C)CC(N)=O)CCOCC2)NC1=O` [compound 427, cPEG3aCO-Pen(3)-N-T-7MeW-K(Ac)-Pen(3)-TMAPF-2Nal-THP-E-N-3Pya-Sar-CONH2] ({Me3N+(CH2)2O(CH2)2O(CH2)2CO}-[Pen]NT[Trp(7-Me)]K(Ac)[Pen]Y(X3)[2Nal][Thp]EN[3Pal][Sar]-NH2; disulfide 1-6), for which the EPSA came to 168 A^2.

Turning to `CC(=O)NCCCC[C@@H]1NC(=O)[C@H](Cc2c[nH]c3c(C)cccc23)NC(=O)[C@H]([C@@H](C)O)NC(=O)[C@H](CC(N)=O)NC(=O)[C@@H](NC(=O)[C@@H](CCCCNC(=O)CCOCCOCC[N+](C)(C)C)NC(C)=O)C(C)(C)SSC(C)(C)[C@@H](C(=O)N[C@@H](Cc2ccc(OCCN)cc2)C(=O)N[C@@H](Cc2ccc3ccccc3c2)C(=O)NC2(C(=O)N[C@@H](CCC(=O)O)C(=O)N[C@@H](CC(N)=O)C(=O)N[C@@H](Cc3cccnc3)C(=O)N(C)CC(N)=O)CCOCC2)NC1=O` [compound 84] (Ac-[dK](Me3N+(CH2)2O(CH2)2O(CH2)2CO)[Pen]NT[Trp(7-Me)]K(Ac)[Pen][AEF][2Nal][Thp]EN[3Pal][Sar]-NH2; disulfide 2-7), the EPSA was 166 A^2.

`CC(=O)NCCCC[C@@H]1NC(=O)[C@H](Cc2c[nH]c3c(C)cccc23)NC(=O)[C@H]([C@@H](C)O)NC(=O)[C@H](CC(N)=O)NC(=O)[C@@H](NC(=O)COCCOCCNC(=O)COCCOCCNC(=O)COc2ccc(-c3ccc(F)cc3F)cc2C(=O)O)C(C)(C)SSC(C)(C)[C@@H](C(=O)N[C@@H](Cc2ccc(OCCCCC[N+](C)(C)C)cc2)C(=O)N[C@@H](Cc2ccc3ccccc3c2)C(=O)NC2(C(=O)N[C@@H](CCCCN(C)C(C)=O)C(=O)N[C@@H](CC(N)=O)C(=O)N[C@@H](Cc3cccnc3)C(=O)N(C)CC(N)=O)CCOCC2)NC1=O` [compound 490, DFNPEG2PEG2CO-Pen(3)-N-T-7MeW-K(Ac)-Pen(3)-TMAPF-2Nal-THP-K(Ac)-N-3Pya-Sar-CONH2]: the EPSA is 182 A^2.

As to `CC(=O)NCCCC[C@@H]1NC(=O)[C@H](Cc2c[nH]c3c(C)cccc23)NC(=O)[C@H]([C@@H](C)O)NC(=O)[C@H](CC(N)=O)NC(=O)[C@@H](NC(C)=O)C(C)(C)SSC(C)(C)[C@@H](C(=O)N[C@@H](Cc2ccc(OCCN)cc2)C(=O)N[C@@H](Cc2ccc3ccccc3c2)C(=O)NC2(C(=O)N[C@@H](CCCCNC(C)=O)C(=O)N[C@@H](CC(N)=O)C(=O)N[C@@H](Cc3cccnc3)C(=O)N(C)CC(=O)NCCOCCOCCOCCOCC[N+](C)(C)C)CCOCC2)NC1=O` [compound 155] (Ac-[Pen]NT[Trp(7-Me)]K(Ac)[Pen][AEF][2Nal][Thp]K(Ac)N[3Pal][Sar]-X82; disulfide 1-6 (inferred)), the EPSA is 150 A^2.

`CC(=O)NCCCC[C@@H]1NC(=O)[C@H](Cc2c[nH]c3c(C)cccc23)NC(=O)[C@H]([C@@H](C)O)NC(=O)[C@H](CC(N)=O)NC(=O)[C@@H](NC(C)=O)C(C)(C)SSC(C)(C)[C@@H](C(=O)N[C@@H](Cc2ccc(-n3cc(CCC[N+]4(C)CCOCC4)nn3)cc2)C(=O)N[C@@H](Cc2ccc3ccccc3c2)C(=O)NC2(C(=O)N[C@@H](CCC(=O)O)C(=O)N[C@@H](CC(N)=O)C(=O)N[C@@H](Cc3cccnc3)C(=O)N(C)CC(N)=O)CCOCC2)NC1=O` [compound 453] (Ac-[Pen]NT[Trp(7-Me)]K(Ac)[Pen][X36][2Nal][Thp]EN[3Pal][Sar]-NH2; disulfide 1-6): the EPSA is 173 A^2.

As to `CC(=O)N(C)CCCC[C@@H]1NC(=O)[C@H](Cc2c[nH]c3c(C)cccc23)NC(=O)[C@H]([C@@H](C)O)NC(=O)[C@H](CC(C)C)NC(=O)[C@@H](NC(=O)CCOCCOCC[N+](C)(C)C)C(C)(C)SSC(C)(C)[C@@H](C(=O)N[C@@H](Cc2ccc(OCCCCC[N+](C)(C)C)cc2)C(=O)N[C@@H](Cc2ccc3ccccc3c2)C(=O)NC2(C(=O)N[C@@H](CCCCN(C)C(C)=O)C(=O)N[C@@H](CC(N)=O)C(=O)N[C@@H](Cc3cccnc3)C(=O)N(C)CC(=O)N(C)C)CCOCC2)NC1=O` [compound 495, cPEG3aCO-Pen(3)-1-T-7MeW-K(NMeAc)-Pen(3)-TMAPF-2Nal-THP-K(NMeAc)-N-3Pya-Sar-CON(Me)2] ({Me3N+(CH2)2O(CH2)2O(CH2)2CO}-[Pen]LT[Trp(7-Me)][Lys(Me)](Ac)[Pen]Y(X3)[2Nal][Thp][Lys(Me)](Ac)N[3Pal][Sar]-NMe2; disulfide 1-6), the EPSA came to 160 A^2.

As for `CC(=O)N(C)CC[C@@H]1NC(=O)[C@H](Cc2c[nH]c3c(C)cccc23)NC(=O)[C@H]([C@@H](C)O)NC(=O)[C@H](CC(N)=O)NC(=O)[C@@H](NC(=O)C(F)(F)F)C(C)(C)SSC(C)(C)[C@@H](C(=O)N[C@@H](Cc2ccc(OCCN)cc2)C(=O)N[C@@H](Cc2ccc3ccccc3c2)C(=O)NC2(C(=O)N[C@@H](CCC(=O)N(C)C)C(=O)N[C@@H](CC(N)=O)C(=O)N[C@@H](Cc3cccnc3)C(=O)N(C)CC(N)=O)CCOCC2)NC1=O` [compound 75] (Tfa-[Pen]NT[Trp(7-Me)][Dab(NMeAc)][Pen][AEF][2Nal][Thp]E(NMe2)N[3Pal][Sar]-NH2; disulfide 1-6), the EPSA was found to be 157 A^2.
